Read-outs that look alike come from different tables or passages of the source.
Tests used:
Mcl-1 protein = Mcl-1 protein (UniProtKB primary accession number: Q07820) (Homo sapiens, UniProt Q07820); assay: Inhibition of Mcl-1 by fluorescence polarisation, Method 1; assay type: binding; settings: for IC50: read-out: IC50 (M) Mcl-1 FP
In short: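 FP competition, 11-point compound titration in 5% final DMSO; protein and labelled probe at 5 nM and 1 nM final in HEPES/NaCl/Tween 20 buffer, pH 7.4.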

[1] = tested on: H929 multiple myeloma tumour line; assay: In vitro cytotoxicity, Microculture Tetrazolium Assay; assay type: cell-based; settings: H929 cells, 48 hours exposure, MTT, read-out: IC50 (μM) MTT H929
Protocol: The cytotoxicity studies were carried out on the H929 multiple myeloma tumour line.
The cells are distributed onto microplates and exposed to the test compounds for 48 hours.

[2] = fluorescence polarisation, Method 1, or Method 2

Chain of Mcl-1 protein (Q07820 whole entry): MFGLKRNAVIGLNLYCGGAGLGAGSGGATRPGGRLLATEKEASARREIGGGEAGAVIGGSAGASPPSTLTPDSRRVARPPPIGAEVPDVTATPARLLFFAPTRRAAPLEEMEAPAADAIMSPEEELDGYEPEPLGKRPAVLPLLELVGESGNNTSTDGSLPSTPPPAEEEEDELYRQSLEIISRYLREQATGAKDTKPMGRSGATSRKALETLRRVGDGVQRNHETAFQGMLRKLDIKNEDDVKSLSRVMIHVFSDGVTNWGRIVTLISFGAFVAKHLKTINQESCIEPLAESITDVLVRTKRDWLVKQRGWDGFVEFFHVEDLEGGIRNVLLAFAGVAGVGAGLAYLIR

Row | Structure (SMILES) | IC50 (Mcl-1 protein; fluorescence polarisation test, Method 2 values are underlined in the patent (underlining not visible here)) | IC50 ([1]; Homo sapiens, NCI-H929, 48 h) | IC50 (Mcl-1 protein; [2]) | percentage fluorescence polarisation inhibition, Mcl-1 FP (Mcl-1 protein; partial inhibitors, @ 10 uM test compound) | IC50 [1]
1 | CCc1sc2ncnc(OC(Cc3ccccc3)C(=O)O)c2c1-c1ccc(OCC(=O)N2CCCC2)c(Cl)c1C [Example 391, (2R)-2-[((5Sa)-5-{3-chloro-2-methyl-4-[2-oxo-2-(pyrrolidin-1-yl)ethoxy]phenyl}-6-ethylthieno[2,3-d]pyrimidin-4-yl)oxy]-3-phenylpropanoic acid] | 3.7e-08 M | 22.1 µM |  |  | 
2 | CCc1sc2ncnc(OC(Cc3ccccc3)C(=O)O)c2c1-c1ccc(OCC(=O)N2CCOCC2)c(Cl)c1C [Example 393, (2R)-2-[((5Sa)-5-{3-chloro-2-methyl-4-[2-(morpholin-4-yl)-2-oxoethoxy]phenyl}-6-ethylthieno[2,3-d]pyrimidin-4-yl)oxy]-3-phenylpropanoic acid] |  | 16.6 µM | 4.1e-08 M |  | 
3 | CCc1sc2ncnc(OC(Cc3ccccc3)C(=O)O)c2c1-c1ccc(OCCc2cccnc2)c(Cl)c1C [Example 396, (2R)-2-[((5Sa)-5-{3-chloro-2-methyl-4-[2-(pyridin-3-yl)ethoxy]phenyl}-6-ethylthieno[2,3-d]pyrimidin-4-yl)oxy]-3-phenylpropanoic acid] |  | 16.1 µM | 9.9e-08 M |  | 
4 | CCc1sc2ncnc(OC(Cc3ccccc3)C(=O)O)c2c1-c1ccc(OCCc2ccncc2)c(Cl)c1C [Example 397, (2R)-2-[((5Sa)-5-{3-chloro-2-methyl-4-[2-(pyridin-4-yl)ethoxy]phenyl}-6-ethylthieno[2,3-d]pyrimidin-4-yl)oxy]-3-phenylpropanoic acid] |  | 15.7 µM | 8e-09 M |  | 
5 | CCCCOc1ccc(-c2c(CC)sc3ncnc(OC(Cc4ccccc4)C(=O)O)c23)c(C)c1Cl [Example 398, (2R)-2-{[(5Sa)-5-(4-butoxy-3-chloro-2-methylphenyl)-6-ethylthieno[2,3-d]pyrimidin-4-yl]oxy}-3-phenylpropanoic acid] |  | 23.8 µM | 1.5e-06 M |  | 
6 | CCc1sc2ncnc(OC(Cc3ccccc3)C(=O)O)c2c1-c1ccc(OCCCN(C)C)c(Cl)c1C [Example 400, (2R)-2-[((5Sa)-5-{3-chloro-4-[3-(dimethylamino)propoxy]-2-methylphenyl}-6-ethylthieno[2,3-d]pyrimidin-4-yl)oxy]-3-phenylpropanoic acid] |  | 14.4 µM | 8.4e-08 M |  | 
7 | CCc1sc2ncnc(OC(Cc3ccccc3)C(=O)O)c2c1-c1ccc(OCCCN2CCCC2=O)c(Cl)c1C [Example 401, (2R)-2-[((5Sa)-5-{3-chloro-2-methyl-4-[3-(2-oxopyrrolidin-1-yl)propoxy]phenyl}-6-ethylthieno[2,3-d]pyrimidin-4-yl)oxy]-3-phenylpropanoic acid] |  | 22.3 µM | 4.9e-08 M |  | 
8 | CCc1sc2ncnc(OC(Cc3ccccc3)C(=O)O)c2c1-c1ccc(OCCCN2CCN(C)CC2)c(Cl)c1C [Example 402, (2R)-2-[((5Sa)-5-{3-chloro-2-methyl-4-[3-(4-methylpiperazin-1-yl)propoxy]phenyl}-6-ethylthieno[2,3-d]pyrimidin-4-yl)oxy]-3-phenylpropanoic acid] |  | 10.4 µM | 6.6e-08 M |  | 
9 | CCNC(=O)NCCCOc1ccc(-c2c(CC)sc3ncnc(OC(Cc4ccccc4)C(=O)O)c23)c(C)c1Cl [Example 404, (2R)-2-{[(5Sa)-5-(3-chloro-4-{3-[(ethylcarbamoyl)amino]propoxy}-2-methylphenyl)-6-ethylthieno[2,3-d]pyrimidin-4-yl]oxy}-3-phenylpropanoic acid] |  | 21.6 µM | 5.7e-08 M |  | 
10 | CCc1sc2ncnc(OC(Cc3ccccc3)C(=O)O)c2c1-c1ccc(OCCCS(C)(=O)=O)c(Cl)c1C [Example 406, (2R)-2-[((5Sa)-5-{3-chloro-2-methyl-4-[3-(methylsulfonyl)propoxy]phenyl}-6-ethylthieno[2,3-d]pyrimidin-4-yl)oxy]-3-phenylpropanoic acid] |  | 21.9 µM | 3.5e-08 M |  | 
11 | CCc1sc2ncnc(OC(Cc3ccccc3)C(=O)O)c2c1-c1ccc(OCCN(C)C)c(Cl)c1C [Example 407, (2R)-2-[((5Sa)-5-{3-chloro-4-[2-(dimethylamino)ethoxy]-2-methylphenyl}-6-ethylthieno[2,3-d]pyrimidin-4-yl)oxy]-3-phenylpropanoic acid] |  | 7.33 µM | 1.1e-07 M |  | 
12 | CCc1sc2ncnc(O[C@H](Cc3ccccc3)C(=O)O)c2c1-c1ccc(OCCN(C)C)c(Cl)c1C [Example 408, (2R)-2-[((5Ra)-5-{3-chloro-4-[2-(dimethylamino)ethoxy]-2-methylphenyl}-6-ethylthieno[2,3-d]pyrimidin-4-yl)oxy]-3-phenylpropanoic acid] |  |  |  | 26.25% @ 10 uM | 15.9 µM
13 | CCc1sc2ncnc(O[C@H](Cc3ccccc3)C(=O)O)c2c1-c1ccc(OCCN(C)CCO)c(Cl)c1C [Example 411, (2R)-2-{[(5Sa)-5-(3-chloro-4-{2-[(2-hydroxyethyl)(methyl)amino]ethoxy}-2-methylphenyl)-6-ethylthieno[2,3-d]pyrimidin-4-yl]oxy}-3-phenylpropanoic acid] |  |  | 3.4e-08 M |  | 19 µM
14 | CCc1sc2ncnc(OC(Cc3ccccc3)C(=O)O)c2c1-c1ccc(OCCN(CCO)CCO)c(Cl)c1C [Example 412, (2R)-2-{[(5Sa)-5-(4-{2-[bis(2-hydroxyethyl)amino]ethoxy}-3-chloro-2-methylphenyl)-6-ethylthieno[2,3-d]pyrimidin-4-yl]oxy}-3-phenylpropanoic acid] |  | 28.7 µM | 5.1e-08 M |  | 
15 | CCc1sc2ncnc(OC(Cc3ccccc3)C(=O)O)c2c1-c1ccc(OCCN2CCC(O)CC2)c(Cl)c1C [Example 413, (2R)-2-[((5Sa)-5-{3-chloro-4-[2-(4-hydroxypiperidin-1-yl)ethoxy]-2-methylphenyl}-6-ethylthieno[2,3-d]pyrimidin-4-yl)oxy]-3-phenylpropanoic acid] |  | 15.8 µM | 1.3e-08 M |  | 
16 | CCc1sc2ncnc(OC(Cc3ccccc3)C(=O)O)c2c1-c1ccc(OCCn2ccnc2)c(Cl)c1C [Example 418, (2R)-2-[((5Sa)-5-{3-chloro-4-[2-(1H-imidazol-1-yl)ethoxy]-2-methylphenyl}-6-ethylthieno[2,3-d]pyrimidin-4-yl)oxy]-3-phenylpropanoic acid] |  | 13.3 µM | 5.6e-08 M |  | 
17 | CCc1sc2ncnc(OC(Cc3ccccc3)C(=O)O)c2c1-c1ccc(OCCN2CCNC2=O)c(Cl)c1C [Example 419, (2R)-2-[((5Sa)-5-{3-chloro-2-methyl-4-[2-(2-oxoimidazolidin-1-yl)ethoxy]phenyl}-6-ethylthieno[2,3-d]pyrimidin-4-yl)oxy]-3-phenylpropanoic acid] |  | 21.5 µM | 3.4e-08 M |  | 
18 | CCc1sc2ncnc(OC(Cc3ccccc3)C(=O)O)c2c1-c1ccc(OCCN2CCOCC2)c(Cl)c1C [Example 420, (2R)-2-[((5Sa)-5-{3-chloro-2-methyl-4-[2-(morpholin-4-yl)ethoxy]phenyl}-6-ethylthieno[2,3-d]pyrimidin-4-yl)oxy]-3-phenylpropanoic acid] |  | 15.6 µM | 4e-08 M |  | 
19 | CCc1sc2ncnc(OC(Cc3ccccc3)C(=O)O)c2c1-c1ccc(OCCNC(C)=O)c(Cl)c1C [Example 422, (2R)-2-[((5Sa)-5-{4-[2-(acetylamino)ethoxy]-3-chloro-2-methylphenyl}-6-ethylthieno[2,3-d]pyrimidin-4-yl)oxy]-3-phenylpropanoic acid] |  | 14.4 µM | 1.4e-08 M |  | 
20 | CCc1sc2ncnc(OC(Cc3ccccc3)C(=O)O)c2c1-c1cc(CN2CCN(C)CC2)c(OC)c(Cl)c1C [Example 434, (2R)-2-[((5Sa)-5-{3-chloro-4-methoxy-2-methyl-5-[(4-methylpiperazin-1-yl)methyl]phenyl}-6-ethylthieno[2,3-d]pyrimidin-4-yl)oxy]-3-phenylpropanoic acid] |  | 11.3 µM | 1.7e-07 M |  | 
21 | CCc1sc2ncnc(OC(Cc3ccccc3)C(=O)O)c2c1-c1cc([N+](=O)[O-])c(OCCN2CCN(C)CC2)c(Cl)c1C [Example 435, (2R)-2-[((5Sa)-5-{3-chloro-2-methyl-4-[2-(4-methylpiperazin-1-yl)ethoxy]-5-nitrophenyl}-6-ethylthieno[2,3-d]pyrimidin-4-yl)oxy]-3-phenylpropanoic acid] |  | 11.1 µM | 3.2e-07 M |  | 
22 | CCc1sc2ncnc(OC(Cc3ccccc3)C(=O)O)c2c1-c1cc(Cl)c(OCCN2CCN(C)CC2)c(Cl)c1C [Example 436, (2R)-2-[((5Sa)-5-{3,5-dichloro-2-methyl-4-[2-(4-methylpiperazin-1-yl)ethoxy]phenyl}-6-ethylthieno[2,3-d]pyrimidin-4-yl)oxy]-3-phenylpropanoic acid] |  | 15.1 µM | 2.9e-08 M |  | 
23 | CCc1sc2ncnc(OC(Cc3ccccc3)C(=O)O)c2c1-c1cc(N)c(OCCN2CCN(C)CC2)c(Cl)c1C [Example 437, (2R)-2-[((5Sa)-5-{5-amino-3-chloro-2-methyl-4-[2-(4-methylpiperazin-1-yl)ethoxy]phenyl}-6-ethylthieno[2,3-d]pyrimidin-4-yl)oxy]-3-phenylpropanoic acid] |  | 20.3 µM | 4.5e-08 M |  | 
24 | CCc1sc2ncnc(OC(Cc3ccccc3)C(=O)O)c2c1-c1cc2nc(CN3CCN(C)CC3)oc2c(Cl)c1C [Example 445, (2R)-2-[((5Sa)-5-{7-chloro-6-methyl-2-[(4-methylpiperazin-1-yl)methyl]-1,3-benzoxazol-5-yl}-6-ethylthieno[2,3-d]pyrimidin-4-yl)oxy]-3-phenylpropanoic acid] |  | 21 µM | 1.3e-07 M |  | 
25 | CCc1sc2ncnc(OC(Cc3ccccc3)C(=O)O)c2c1-c1cc2nc(CN3CCOCC3)oc2c(Cl)c1C [Example 446, (2R)-2-({(5Sa)-5-[7-chloro-6-methyl-2-(morpholin-4-ylmethyl)-1,3-benzoxazol-5-yl]-6-ethylthieno[2,3-d]pyrimidin-4-yl}oxy)-3-phenylpropanoic acid] |  | 25.7 µM | 1.1e-07 M |  | 

From patent publication US9670227B2, “Thienopyrimidine derivatives, a process for their preparation and pharmaceutical compositions containing them” (LES LABORATOIRES SERVIER, priority 2013, dated 2017)
